Measurements reported in publication PMC6753678, “Fueling Open Innovation for Malaria Transmission-Blocking Drugs: Hundreds of Molecules Targeting Early Parasite Mosquito Stages” (Frontiers in Microbiology, 2019).
pIC50: −log10 of the molar value. Read-outs that look alike come from different tables or passages of the source.

Experiments:
[1] = tested on: 3D7-strain P. falciparum asexual parasites; experiment: P. falciparum asexual growth inhibition assay (Pf GIA); type: cell-based, Plasmodium falciparum; details: dose response confirmation; read-out: Pf asexual growth inhibition assays IC50
Outline: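 Parasites at 0.25% parasitemia, 2% hematocrit in Albumax-supplemented RPMI were exposed to compounds in dose response for 72 h at 37°C under 5% CO2/5% O2. Viability was read as LDH activity (NBT/diaphorase, A650 after freeze-thaw). Percent inhibition was calculated against chloroquine and DMSO controls, mean of three biological replicates.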

[2] = tested on: P. berghei ookinete development; details: for % inhibition, Replicate A / % inhibition, Replicate B: primary screen at 1 μM
HepG2 cells = experiment: HepG2 cytotoxicity assay; details: for pIC50: read-out: HepG2 cytotoxicity assay IC50, dose response confirmation; for Pb ODA (this manuscript) HepG2 cytoxicity: HepG2 cytotoxicity listed with the Pb ODA data set (this manuscript)
Outline: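 Cells are plated at 2,500 per well on compound-treated plates in MEM containing 10% fetal bovine serum and 1% NEAA, then incubated 48 h at 37°C.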

[3] = read-out: Pb ODA IC50, this manuscript
[4] = read-out: Pb Ookinete development assay IC50, dose response confirmation
[5] = unified HepG2 value across the three screens
[6] = HepG2 values of the three screens unified
[7] = read-out: Pb ODA (this manuscript) IC50, P. berghei ookinete development assay, this manuscript

Structure (SMILES)	pIC50 [1]	Is compound selective in assay? Pb ODA active? ([2]; 1: YES, 0: NO)	% inhibition, Replicate A [2]	% inhibition, Replicate B [2]	pIC50 [2, 3]	pIC50 [2, 4]	pIC50 (HepG2 cells)	Unified cytotox (HepG2 cells; [5])	HepG2 cytoxicity (Pb ODA, this manuscript) (HepG2 cells)	Unified cytotox (HepG2 cells; [6])	Is compound selective in assay? Pb ODA active? [2]	pIC50 [2, 7]	Pb ODA (this manuscript) HepG2 cytoxicity (HepG2 cells)
Cc1cc(NC(c2ccc(Cl)cc2)c2ccc3cccnc3c2O)no1 (stereo not shown) [TCMDC-123828]	5.59	0 (0: NO)	41.30%	61.82%	5.52	5.52	5.86	1.38 µM					
CCCCN(C)CC#Cc1ccc(-c2ccc3[nH]c(C)c(Br)c(=O)c3c2)cn1 [TCMDC-136285]	5.98	1 (1: YES)	73.89%	66.49%	5.99	5.99	4.00	100.00 µM					
CC(=O)c1ccc(NC(=O)Nc2ccc(N(C)c3ccnc(Nc4cccc(CS(C)(=O)=O)c4)n3)cc2)cc1 [TCMDC-138736]	6.22	1 (1: YES)	94.55%	90.04%	6.70	6.69	5.68	2.11 µM					
CC(C)c1nc(N2CCN(C(=S)NCc3ccccc3)CC2)c(C#N)c2c1COC(C)(C)C2 [TCMDC-124093]	7.26	0 (0: NO)	50.94%	54.99%		6.12	8.77	0.0017 µM					
Cc1[nH]c(C)c(-c2ccc(CCc3ccc(C(F)(F)F)cc3)nc2)c(=O)c1Cl [TCMDC-136051]	7.28	1 (1: YES)	100.56%	100.86%	6.85	6.84	4.24		56.89 µM	56.89 µM			
CCOC(=O)N1CCN(CCCCNc2c3ccc(Cl)cc3nc3ccc(OC)cc23)CC1.Cl [TCMDC-137579]	7.52		26.46%	54.23%		5.35	5.26				0 (key: 1: YES; 0: NO)	5.35	5.50 µM
Cc1cc(O)c(-c2ccc(Oc3ccc(F)cc3)cc2)c(C)n1 [TCMDC-137535]	5.99	0 (0: NO)	57.60%	38.98%	6.24	6.23	6.55		0.28 µM	0.28 µM			
Cc1ccc2c(=O)c3cc(C)ccc3[nH]c2c1 [TCMDC-138194]	6.75	1 (1: YES)	98.56%	107.67%	6.66	6.66	4.19	63.83 µM					
N#Cc1ccc(CN2CCC(Oc3ccc(NC(=O)c4cccs4)cc3Cl)CC2)cc1.O=C(O)C(F)(F)F [TCMDC-133955]	6.22		56.20%	46.08%		5.36	4.44				0 (key: 1: YES; 0: NO)	5.36	36.31 µM
Cc1[nH]c(C)c(-c2ccc(OCc3ccc(F)cc3)nc2)c(=O)c1Br [TCMDC-135657]	6.76	1 (1: YES)	61.60%	80.51%	6.22	6.22	4.00			100.00 µM			
CN1CCN(CC(=O)Nc2ccc(-c3ccc(-c4nc5ccccc5[nH]4)cc3)cc2)CC1 [TCMDC-136979]	5.95	0 (0: NO)	58.34%	20.87%	5.38	5.38	4.66	21.63 µM					
Nc1nc(N)c2c(ccc3c2ccn3Cc2ccccn2)n1 [TCMDC-137980]	8.94	0 (0: NO)	50.19%	73.34%		5.61	8.12		0.00767 µM	0.00767 µM			
CCC(C)(C)c1ccc2nc(N)nc(N)c2c1C [TCMDC-137829]	8.97	0 (0: NO)	40.64%	76.04%	5.51	5.51	8.77	0.0017 µM					
COc1ccc2ncc(Cl)c(CCN3CCC(NCc4ccc5c(n4)NC(=O)CS5)CC3)c2c1.Cl [TCMDC-141807]	6.42	1 (1: YES)	68.31%	67.95%	5.87	5.87	4.81		15.49 µM	15.49 µM			
Cl.c1ccc(Oc2ccc(Nc3nncc4ccccc34)cc2)cc1 [TCMDC-137229]	6.26	1 (1: YES)	75.48%	62.89%	6.16	6.16	4.00	100.00 µM					
CC(C)Nc1nc(NC2CCCCC2)nc(N2CCCCCCC2)n1 [TCMDC-139688]	5.65	1 (1: YES)	67.11%	52.41%		5.49	4.48	33.11 µM					
Cc1[nH]c(C)c(-c2ccc(-c3ccc(C(F)(F)F)cc3C(F)(F)F)nc2)c(=O)c1Br [TCMDC-136013]	6.81	1 (1: YES)	94.49%	93.70%	6.72	6.73	5.13		7.41 µM	7.41 µM			
Nc1nc(N)c2c(ccc3c2ccn3Cc2cccc3ccccc23)n1 [TCMDC-137996]	6.82	0 (0: NO)	55.22%	70.48%	5.24	5.24	8.77		0.0017 µM	0.0017 µM			
COc1ccc2nccc([C@@H](O)CN3CCC(NCc4ccc5c(c4)NC(=O)CO5)CC3)c2c1.Cl [TCMDC-140793]	6.14		51.85%	48.48%		5.44	4.55				0 (key: 1: YES; 0: NO)	5.44	28.18 µM
COc1cc(NC2=C(c3ccccc3)C(=O)c3ccccc32)ccn1 [TCMDC-135283]	6.54		80.47%	74.75%		6.13	4.00				1 (key: 1: YES; 0: NO)	6.13	100.00 µM
CCN1CCN(CCNc2c3ccccc3nc3ccccc23)CC1.Cl [TCMDC-137545]	6.22	0 (0: NO)	68.50%	47.85%	5.75	5.75	4.93		11.75 µM	11.75 µM			
Cc1[nH]c(C)c(-c2ccc(-c3ccccc3F)nc2)c(=O)c1Cl [TCMDC-135927]	6.47	1 (1: YES)	86.73%	100.97%	6.37	6.36	4.00			100.00 µM			
COc1ccc(Nc2ncc(Cl)c(Nc3cccnc3C(N)=O)n2)cc1N1CCN(C)CC1.Cl [TCMDC-134163]	6.77		91.07%	92.91%		6.42	4.95				1 (key: 1: YES; 0: NO)		11.22 µM
O=C(c1cc(-c2ccco2)[nH]n1)N1CCN(S(=O)(=O)c2ccc(Br)cc2)CC1 [TCMDC-124699]	6.75		66.14%	59.38%		5.99	4.00				1 (key: 1: YES; 0: NO)		100.00 µM
CCN(CC)c1nc(N)c2c(N)nc3c(c2c1C#N)C(=O)CN3Cc1ccccc1 [TCMDC-125024]	7.42	1 (1: YES)	101.60%	105.52%	6.21	6.21	4.00	100.00 µM					
